Measured values reported in ChEMBL document CHEMBL4616726, “Optimization of the Linker Domain in a Dimeric Compound that Degrades an r(CUG) Repeat Expansion in Cells” (J Med Chem, 2020).
Activity calls are given as the source filed them. The rule behind the calls is not given here.

Tests used:
r(CUG) repeat expansion [1] = assay: Induction of DMPK mRNA 3'-UTR r(CUG)1300 repeat degradation in human DM1 patient-derived myotubes at 5 uM by RT-qPCR analysis relative to control; assay type: nucleic-acid assay
[2] = Drug localization in cytoplasm of human DM1-patient derived myotubes by live-cell fluorescence microscopy; assay type: ADME, subcellular
r(CUG) repeat expansion [3] = assay: Induction of r(CUG)exp RNA repeat in human DM1-patient derived myotubes assessed as improvement in MBNL1 exon 5 splicing defect at 5 uM by RT-qPCR analysis relative to control; assay type: nucleic-acid assay
r(CUG) repeat expansion [4] = assay: Induction of 5'-biotinylated r(CUG)12 RNA repeat (unknown origin) degradation assessed as disruption of r(CUG)12-MBNL1 complex formation incubated for 15 mins by TR-FRET assay; assay type: nucleic-acid assay
[5] = Drug uptake in human DM1-patient derived myotubes by fluorescence based assay; assay type: ADME; settings: in vitro
r(CUG) repeat expansion [6] = assay: Induction of r(CUG)exp RNA repeat in human DM1-patient derived myotubes assessed as improvement in MBNL1 exon 5 splicing defect by RT-qPCR analysis; assay type: nucleic-acid assay
r(CUG) repeat expansion [7] = assay: Induction of r(CUG)exp RNA repeat in human DM1-patient derived myotubes assessed as reduction in number of foci containing r(CUG)exp-MBNL1 foci at 5 uM by RNA fluorescence in situ hybridization assay; assay type: nucleic-acid assay
r(CUG) repeat expansion [8] = assay: Induction of r(CUG)exp RNA repeat in human DM1-patient derived myotubes assessed as reduction in number of foci containing r(CUG)exp-MBNL1 foci at 5 uM by immunofluorescence assay; assay type: nucleic-acid assay
[9] = Drug localization in nucleus of human DM1-patient derived myotubes by live-cell fluorescence microscopy; assay type: ADME, subcellular
r(CUG) repeat expansion [10] = assay: Binding affinity to r(CUG)12 RNA repeat (unknown origin) by fluorescence based assay; assay type: nucleic-acid assay
r(CUG) repeat expansion [11] = assay: Binding affinity to r(CUG)8 RNA repeat (unknown origin) by fluorescence based assay; assay type: nucleic-acid assay
r(CUG) repeat expansion [12] = assay: Induction of DMPK mRNA 3'-UTR r(CUG)1300 repeat degradation in human DM1 patient-derived myotubes at 0.2 to 5 uM by RT-qPCR analysis relative to control; assay type: nucleic-acid assay
r(CUG) repeat expansion [13] = assay: Induction of r(CUG)exp RNA repeat in human DM1-patient derived myotubes assessed as improvement in MBNL1 exon 5 splicing defect at 0.2 to 5 uM by RT-qPCR analysis relative to control; assay type: nucleic-acid assay
r(CUG) repeat expansion [14] = assay: Induction of r(CUG)10 RNA repeat (unknown origin) degradation at 2.5 uM relative to control; assay type: nucleic-acid assay
r(CUG) repeat expansion [15] = assay: Induction of MAP3K4 r(CUG)11 RNA repeat degradation in human DM1 patient myotubes at 1 uM by RT-qPCR analysis relative to control; assay type: nucleic-acid assay
r(CUG) repeat expansion [16] = assay: Induction of CASK r(CUG)16 RNA repeat degradation in human DM1 patient myotubes at 1 uM by RT-qPCR analysis relative to control; assay type: nucleic-acid assay
r(CUG) repeat expansion [17] = assay: Induction of DMPK mRNA 3'-UTR r(CUG)1300 repeat degradation in human DM1 patient-derived myotubes at 1 uM by RT-qPCR analysis relative to control; assay type: nucleic-acid assay
r(CUG) repeat expansion [18] = assay: Induction of SORCS2 r(CUG)7 RNA repeat degradation in human DM1 patient myotubes at 1 uM by RT-qPCR analysis relative to control; assay type: nucleic-acid assay
r(CUG) repeat expansion [19] = assay: Induction of wild-type DMPK r(CUG)20 RNA repeat degradation in healthy human myotubes at 5 uM by RT-qPCR analysis relative to control; assay type: nucleic-acid assay
r(CUG) repeat expansion [20] = assay: Induction of r(CUG)10 RNA repeat (unknown origin) degradation at 0.3 to 2.5 uM; assay type: nucleic-acid assay
r(CUG) repeat expansion [21] = assay: Induction of SCUBE2 r(CUG)7 RNA repeat degradation in human DM1 patient myotubes at 1 uM by RT-qPCR analysis relative to control; assay type: nucleic-acid assay
Homo sapiens [22] = species on record: Homo sapiens; assay: Induction of DNA damage in human DM1-patient derived myotubes at 1 uM assessed as induction of DNA double strand breaks by measuring gamma-H2AX foci formation by immunofluorescence assay relative to control; assay type: functional
r(CUG) repeat expansion [23] = assay: Induction of r(CUG)exp RNA repeat in human DM1-patient derived myotubes assessed as improvement in MBNL1 exon 5 splicing defect at 1 uM by RT-qPCR analysis relative to control; assay type: nucleic-acid assay
r(CUG) repeat expansion [24] = assay: Induction of wild-type DMPK r(CUG)20 RNA repeat degradation in human DM1 patient myotubes at 1 uM by RT-qPCR analysis relative to control; assay type: nucleic-acid assay
Homo sapiens [25] = species on record: Homo sapiens; assay: Effect on MBNL1 exon 5 splicing patterns in wild type human myotubes at 5 uM by RT-qPCR analysis relative to control; assay type: functional
r(CUG) repeat expansion [26] = assay: Induction of LRP8 r(CUG)11 RNA repeat degradation in human DM1 patient myotubes at 1 uM by RT-qPCR analysis relative to control; assay type: nucleic-acid assay
Homo sapiens [27] = species on record: Homo sapiens; assay: Effect on alternative splicing of MAP4K4 exon 22a in human DM1-patient derived myotubes at 5 uM by RT-qPCR analysis relative to control; assay type: functional
r(CUG) repeat expansion [28] = assay: Induction of r(CUG)exp RNA repeat in human DM1-patient derived myotubes assessed as reduction in number of foci containing r(CUG)exp-MBNL1 foci at 1 uM by RNA fluorescence in situ hybridization assay; assay type: nucleic-acid assay

CC(=O)O[C@H]1[C@H](O)[C@H](O[C@@H]2[C@H](O[C@H](c3cnc[nH]3)[C@@H](NC(=O)c3nc([C@@H](CC(N)=O)NC[C@@H](N)C(N)=O)nc(N)c3C)C(=O)N[C@@H](C)[C@H](O)[C@@H](C)C(=O)N[C@H](C(=O)NCCc3nc(-c4nc(C(=O)NCCCNCCCCNC(=O)CCCCCCC(=O)N(CCN(C)C(=O)CCCOc5cccc(-c6nc7ccc(-c8nc9ccc(N%10CCN(C)CC%10)cc9[nH]8)cc7[nH]6)c5)CC(=O)N(C)[C@@H](C)C(=O)N(C)[C@@H](C)C(=O)N(C)[C@@H](C)C(=O)N(CCCCN(C)C(=O)CCCOc5cccc(-c6nc7ccc(-c8nc9ccc(N%10CCN(C)CC%10)cc9[nH]8)cc7[nH]6)c5)CC(N)=O)cs4)cs3)[C@H](C)O)O[C@@H](CO)[C@H](O)[C@H]2O)O[C@@H](CO)[C@@H]1O
Activity (r(CUG) repeat expansion [1]): 30%

CN1CCN(c2ccc3[nH]c(-c4ccc5[nH]c(-c6cccc(OCCCC(=O)N(C)CCCCN(CC(N)=O)C(=O)[C@@H]7C[C@@H](O)CN7C(=O)[C@@H]7C[C@@H](O)CN7C(=O)[C@@H]7C[C@@H](O)CN7C(=O)[C@@H]7C[C@@H](O)CN7C(=O)CCCOc7cccc(-c8nc9ccc(-c%10nc%11ccc(N%12CCN(C)CC%12)cc%11[nH]%10)cc9[nH]8)c7)c6)nc5c4)nc3c2)CC1
Drug uptake [2]: Active | Activity (r(CUG) repeat expansion [3]): inactive | Activity (r(CUG) repeat expansion [4]): Active | Drug uptake [5]: Active

CN1CCN(c2ccc3[nH]c(-c4ccc5[nH]c(-c6cccc(OCCCC(=O)N(C)CCCCN(CC(N)=O)C(=O)[C@H](Cc7ccc(O)cc7)N(C)C(=O)[C@H](Cc7ccc(O)cc7)N(C)C(=O)[C@H](Cc7ccc(O)cc7)N(C)C(=O)[C@H](Cc7ccc(O)cc7)N(C)C(=O)CCCOc7cccc(-c8nc9ccc(-c%10nc%11ccc(N%12CCN(C)CC%12)cc%11[nH]%10)cc9[nH]8)c7)c6)nc5c4)nc3c2)CC1
Activity (r(CUG) repeat expansion [4]): Active

CN1CCN(c2ccc3[nH]c(-c4ccc5[nH]c(-c6cccc(OCCCC(=O)N(C)CCCCN(CC(N)=O)C(=O)[C@@H]7CCCN7C(=O)[C@@H]7CCCN7C(=O)[C@@H]7CCCN7C(=O)[C@@H]7CCCN7C(=O)CCCOc7cccc(-c8nc9ccc(-c%10nc%11ccc(N%12CCN(C)CC%12)cc%11[nH]%10)cc9[nH]8)c7)c6)nc5c4)nc3c2)CC1
Activity (r(CUG) repeat expansion [4]): Active

CN1CCN(c2ccc3[nH]c(-c4ccc5[nH]c(-c6cccc(OCCCC(=O)N(C)CCCCN(CC(N)=O)C(=O)[C@@H]7CCCN7C(=O)[C@@H]7CCCN7C(=O)[C@@H]7CCCN7C(=O)CCCOc7cccc(-c8nc9cc(-c%10nc%11cc(N%12CCN(C)CC%12)ccc%11[nH]%10)ccc9[nH]8)c7)c6)nc5c4)nc3c2)CC1
Activity (r(CUG) repeat expansion [4]): Active

CN1CCN(c2ccc3[nH]c(-c4ccc5[nH]c(-c6cccc(OCCCC(=O)N(C)CCCCN(CC(N)=O)C(=O)[C@@H]7CCCN7C(=O)[C@@H]7CCCN7C(=O)[C@@H]7CCCN7C(=O)[C@@H]7CCCN7C(=O)[C@@H]7CCCN7C(=O)CCCOc7cccc(-c8nc9cc(-c%10nc%11cc(N%12CCN(C)CC%12)ccc%11[nH]%10)ccc9[nH]8)c7)c6)nc5c4)nc3c2)CC1
Activity (r(CUG) repeat expansion [4]): Active

CN1CCN(c2ccc3[nH]c(-c4ccc5[nH]c(-c6cccc(OCCCC(=O)N(C)CCCCN(CC(N)=O)C(=O)[C@@H]7CCCN7C(=O)[C@@H]7CCCN7C(=O)CCCOc7cccc(-c8nc9ccc(-c%10nc%11ccc(N%12CCN(C)CC%12)cc%11[nH]%10)cc9[nH]8)c7)c6)nc5c4)nc3c2)CC1
Drug uptake [2]: Active | Activity (r(CUG) repeat expansion [6]): Dose-dependent effect | Activity (r(CUG) repeat expansion [7]): Active | Activity (r(CUG) repeat expansion [8]): Active | Activity (r(CUG) repeat expansion [3]): 30% | IC50 (r(CUG) repeat expansion [4]): 5300 nM | Drug uptake [9]: Active | EC50 (r(CUG) repeat expansion [10]): 150 nM | Drug uptake [5]: Active | EC50 (r(CUG) repeat expansion [11]): > 10000 nM

C[C@@H](C(=O)N(C)[C@@H](C)C(=O)N(C)[C@@H](C)C(=O)N(C)[C@@H](C)C(=O)N(CCCCN(C)C(=O)CCCOc1cccc(-c2nc3cc(-c4nc5cc(N6CCN(C)CC6)ccc5[nH]4)ccc3[nH]2)c1)CC(N)=O)N(C)C(=O)CCCOc1cccc(-c2nc3ccc(-c4nc5ccc(N6CCN(C)CC6)cc5[nH]4)cc3[nH]2)c1
Activity (r(CUG) repeat expansion [7]): Active | Activity (r(CUG) repeat expansion [8]): Active | Activity (r(CUG) repeat expansion [3]): 30% | Activity (r(CUG) repeat expansion [4]): Active | Drug uptake [9]: Active | EC50 (r(CUG) repeat expansion [10]): 280 nM | Drug uptake [5]: Active | EC50 (r(CUG) repeat expansion [11]): > 10000 nM

CC(=O)N(C)CCCCN(CC(=O)NCCCCNCCCNC(=O)c1csc(-c2csc(CCNC(=O)[C@@H](NC(=O)[C@H](C)[C@@H](O)[C@H](C)NC(=O)[C@H](NC(=O)c3nc([C@@H](CC(N)=O)NC[C@@H](N)C(N)=O)nc(N)c3C)[C@H](O[C@@H]3O[C@@H](CO)[C@@H](O)[C@@H](O)[C@@H]3O[C@H]3O[C@H](CO)[C@@H](O)[C@H](OC(N)=O)[C@H]3O)c3cnc[nH]3)[C@H](C)O)n2)n1)C(=O)[C@H]1CCCN1C(=O)[C@H]1CCCN1C(C)=O
Activity (r(CUG) repeat expansion [12]): inactive | Activity (r(CUG) repeat expansion [13]): inactive | Activity (r(CUG) repeat expansion [14]): inactive

C[C@@H](NC(=O)CCCOc1cccc(-c2nc3ccc(-c4nc5ccc(N6CCN(C)CC6)cc5[nH]4)cc3[nH]2)c1)C(=O)N[C@H](C)C(=O)N[C@H](C)C(=O)N[C@H](C)C(=O)N(CCCCN(C)C(=O)CCCOc1cccc(-c2nc3cc(-c4nc5cc(N6CCN(C)CC6)ccc5[nH]4)ccc3[nH]2)c1)CC(N)=O
Drug uptake [2]: Active | Activity (r(CUG) repeat expansion [3]): inactive | Activity (r(CUG) repeat expansion [4]): Active | Drug uptake [9]: Active

Cc1c(N)nc([C@@H](CC(N)=O)NC[C@@H](N)C(N)=O)nc1C(=O)N[C@@H](C(=O)N[C@@H](C)[C@H](O)[C@@H](C)C(=O)N[C@H](C(=O)NCCc1nc(-c2nc(C(=O)NCCCNCCCCNC(=O)CN(CCCCN(C)C(=O)CCCOc3cccc(-c4nc5cc(-c6nc7cc(N8CCN(C)CC8)ccc7[nH]6)ccc5[nH]4)c3)C(=O)[C@H]3CCCN3C(=O)[C@H]3CCCN3C(=O)CCCOc3cccc(-c4nc5ccc(-c6nc7ccc(N8CCN(C)CC8)cc7[nH]6)cc5[nH]4)c3)cs2)cs1)[C@H](C)O)[C@H](O[C@@H]1O[C@@H](CO)[C@@H](O)[C@@H](O)[C@@H]1O[C@H]1O[C@H](CO)[C@@H](O)[C@H](OC(N)=O)[C@H]1O)c1cnc[nH]1
Activity (r(CUG) repeat expansion [15]): inactive | Activity (r(CUG) repeat expansion [16]): inactive | Activity (r(CUG) repeat expansion [17]): Active | Activity (r(CUG) repeat expansion [3]): 50% | Activity (r(CUG) repeat expansion [18]): inactive | Activity (r(CUG) repeat expansion [19]): inactive | Activity (r(CUG) repeat expansion [1]): 45% | Activity (r(CUG) repeat expansion [20]): Dose-dependent effect | Activity (r(CUG) repeat expansion [21]): inactive | Activity (Homo sapiens [22]): inactive | Activity (r(CUG) repeat expansion [14]): 20% | EC50 (r(CUG) repeat expansion [10]): 280 nM | Activity (r(CUG) repeat expansion [23]): 30% | Activity (r(CUG) repeat expansion [24]): inactive | Drug uptake [5]: Active | Activity (Homo sapiens [25]): inactive | EC50 (r(CUG) repeat expansion [11]): > 10000 nM | Activity (r(CUG) repeat expansion [26]): inactive | Activity (Homo sapiens [27]): inactive | Activity (r(CUG) repeat expansion [28]): Active
